Data taken from ChEMBL document CHEMBL4312011, “Synthesis and biological evaluation of triterpenoid thiazoles derived from betulonic acid, dihydrobetulonic acid, and ursonic acid” (Eur J Med Chem, 2020).
In brackets after ≈: the same amount, converted by molar mass. Activity calls are given as the source filed them. The rule behind the calls is not given here.

Columns and labels:
[1] = Chemical stability of compound in PBS buffer assessed as parent compound remaining at 2 uM at pH 7.4 and 37 degC incubated for 15 mins by RF-MS analysis; format: physicochemical; conditions: read-out: Stability
[2] = Stability in human plasma assessed as parent compound remaining at 2 uM incubated for 15 mins by RF-MS analysis; format: ADME, cell-free; conditions: read-out: Stability
CCRF-CEM [3] = assay: Induction of apoptosis in human CCRF-CEM cells assessed as activation of caspase 3 at 5 times IC50 concentration measured after 24 hrs by Western blot analysis; format: functional, cell-based
[4] = Solubility of compound in 5 % DMSO in water by HPLC-MS analysis; format: physicochemical
[5] = Protein binding in human plasma at 10 uM measured after 4 hrs by rapid equilibrium dialysis; format: ADME, cell-free; conditions: read-out: PPB (converted)
CCRF-CEM [6] = assay: Induction of apoptosis in human CCRF-CEM cells assessed as increase in BAX expression at 5 times IC50 concentration measured after 24 hrs by Western blot analysis; format: functional, cell-based
CCRF-CEM [7] = assay: Cell cycle arrest in human CCRF-CEM cells assessed as decrease in proportion of cells in G1 phase at 5 times IC50 measured after 24 hrs by propidium iodide/RNase staining based flow cytometry analysis; format: functional
[8] = Microsomal stability in human liver microsomes assessed as parent compound remaining at 2 uM incubated for 60 mins by RF-MS analysis; format: ADME, Microsome; conditions: read-out: Stability
CCRF-CEM [9] = assay: Cytotoxicity against human CCRF-CEM cells incubated for 72 hrs by MTS assay; format: functional, cell-based
U2OS = assay: Cytotoxicity against human U2OS cells incubated for 72 hrs by MTS assay; format: functional, cell-based
CCRF-CEM [10] = assay: Induction of apoptosis in human CCRF-CEM cells assessed as activation of caspase 7 at 5 times IC50 concentration measured after 24 hrs by Western blot analysis; format: functional, cell-based
K562 = assay: Cytotoxicity against human K562 cells incubated for 72 hrs by MTS assay; format: functional, cell-based; conditions: K562, 72 h
[11] = Solubility of compound in 10 % DMSO in water by HPLC-MS analysis; format: physicochemical
[12] = Microsomal stability in human liver microsomes assessed as parent compound remaining at 2 uM incubated for 15 mins by RF-MS analysis; format: ADME, Microsome; conditions: read-out: Stability
HCT-116 [13] = assay: Cytotoxicity against human HCT116 cells incubated for 72 hrs by MTS assay; format: functional, cell-based; conditions: HCT-116, 72 h
CCRF-CEM [14] = assay: Induction of apoptosis in human CCRF-CEM cells assessed as late apoptotic cells at 5 times IC50 concentration measured after 24 hrs by AnnexinV-FITC/propidium iodide staining based flow cytometry analysis (reference value: 0.1 %); format: functional
CCRF-CEM [15] = assay: Cell cycle arrest in human CCRF-CEM cells assessed as decrease in proportion of cells in S phase at 5 times IC50 measured after 24 hrs by propidium iodide/RNase staining based flow cytometry analysis; format: functional
[16] = Chemical stability of compound in PBS buffer assessed as parent compound remaining at 2 uM at pH 7.4 and 37 degC incubated for 30 mins by RF-MS analysis; format: physicochemical; conditions: read-out: Stability
[17] = Stability in human plasma assessed as parent compound remaining at 2 uM incubated for 60 mins by RF-MS analysis; format: ADME, cell-free; conditions: read-out: Stability
CCRF-CEM [18] = assay: Induction of apoptosis in human CCRF-CEM cells assessed as decrease in Bcl-2 expression at 5 times IC50 concentration measured after 24 hrs by Western blot analysis; format: functional, cell-based
[19] = Permeability of compound in PBS buffer assessed as permeability coefficient at pH 7.4 incubated for 18 hrs by PAMPA based RF-MS analysis; format: ADME; conditions: pH 7.4, 18 h
HCT-116 [20] = assay: Cytotoxicity against p53 knockout human HCT116 cells incubated for 72 hrs by MTS assay; format: functional, cell-based; conditions: HCT-116, 72 h
CCRF-CEM [21] = assay: Induction of apoptosis in human CCRF-CEM cells assessed as early apoptotic cells at 5 times IC50 concentration measured after 24 hrs by AnnexinV-FITC/propidium iodide staining based flow cytometry analysis (reference value: 2.8 %); format: functional
[22] = Cytotoxicity against human CEM-DNR-bulk cells incubated for 72 hrs by MTS assay; format: functional, cell-based
[23] = Microsomal stability in human liver microsomes assessed as parent compound remaining at 2 uM incubated for 30 mins by RF-MS analysis; format: ADME, Microsome; conditions: read-out: Stability
CCRF-CEM [24] = assay: Induction of mitochondrial membrane depolarization in human CCRF-CEM cells at 5 times IC50 measured after 24 hrs by JC-1 staining based flow cytometry analysis (reference value: 8.4 %); format: functional
[25] = Cytotoxicity against human K562-TAX cells incubated for 72 hrs by MTS assay; format: functional, cell-based
[26] = Solubility of compound in 0.5 % DMSO in water by HPLC-MS analysis; format: physicochemical
BJ = assay: Cytotoxicity against human BJ cells incubated for 72 hrs by MTS assay; format: cell-based
A549 = assay: Cytotoxicity against human A549 cells incubated for 72 hrs by MTS assay; format: functional, cell-based; conditions: A549, 72 h
[27] = Stability in human plasma assessed as parent compound remaining at 2 uM incubated for 120 mins by RF-MS analysis; format: ADME, cell-free; conditions: read-out: Stability
CCRF-CEM [28] = assay: Induction of apoptosis in human CCRF-CEM cells assessed as necrotic cells at 5 times IC50 concentration measured after 24 hrs by AnnexinV-FITC/propidium iodide staining based flow cytometry analysis (reference value: 0.1 %); format: functional
[29] = Chemical stability of compound in PBS buffer assessed as parent compound remaining at 2 uM at pH 7.4 and 37 degC incubated for 60 mins by RF-MS analysis; format: physicochemical; conditions: read-out: Stability
MRC5 = assay: Cytotoxicity against human MRC5 cells incubated for 72 hrs by MTS assay; format: cell-based; conditions: MRC5, 72 h
CCRF-CEM [30] = assay: Induction of apoptosis in human CCRF-CEM cells assessed as activation of procaspase 8 at 5 times IC50 concentration measured after 24 hrs by Western blot analysis; format: functional, cell-based
[31] = Stability in human plasma assessed as parent compound remaining at 2 uM incubated for 30 mins by RF-MS analysis; format: ADME, cell-free; conditions: read-out: Stability
CCRF-CEM [32] = assay: Induction of apoptosis in human CCRF-CEM cells assessed as increase in caspase 3/7 activity using Ac-DEVD-AMC as substrate at 5 times IC50 concentration measured after 24 hrs by fluorescence assay; format: functional, cell-based
CCRF-CEM [33] = assay: Cell cycle arrest in human CCRF-CEM cells assessed as increase in G2/M phase accumulation at 5 times IC50 measured after 24 hrs by propidium iodide/RNase staining based flow cytometry analysis; format: functional
[34] = Chemical stability of compound in PBS buffer assessed as parent compound remaining at 2 uM at pH 7.4 and 37 degC incubated for 120 mins by RF-MS analysis; format: physicochemical; conditions: read-out: Stability
CCRF-CEM [35] = assay: Induction of apoptosis in human CCRF-CEM cells assessed as viable cells at 5 times IC50 concentration measured after 24 hrs by AnnexinV-FITC/propidium iodide staining based flow cytometry analysis (reference value: 97 %); format: functional
CCRF-CEM [36] = assay: Induction of apoptosis in human CCRF-CEM cells assessed as activation of PARP cleavage at 5 times IC50 concentration measured after 24 hrs by Western blot analysis; format: functional, cell-based

For `C[C@H]1[C@H](C)CC[C@]2(C(=O)O)CC[C@]3(C)C(=CC[C@@H]4[C@@]5(C)CC(Br)C(=O)C(C)(C)[C@@H]5CC[C@]43C)[C@H]12` (stereo partly specified), which remaining at 0.25 h, 2 µM [1] is on record?
Its remaining at 0.25 h, 2 µM is 99.6%.

What about the remaining at 0.25 h, 2 µM [2] of the same compound?
The remaining at 0.25 h, 2 µM was 98.5%.

And the Activity (CCRF-CEM [3])?
The Activity was “Active”.

What about the solubility [4] of the same compound?
Its solubility is 30 µM (≈ 16 µg/mL).

And the fraction unbound at 4 h, 10 µM [5]?
The fraction unbound at 4 h, 10 µM was 0.176.

And the Activity (CCRF-CEM [6])?
Its Activity is “Active”.

And the Activity (CCRF-CEM [7])?
The Activity was “Active”.

What about the remaining at 1 h, 2 µM [8] of the same compound?
Its remaining at 1 h, 2 µM is 66.2%.

And the IC50 (CCRF-CEM [9])?
The IC50 was 3.6 µM.

And the IC50 (U2OS)?
Its IC50 is 20.7 µM.

What about the Activity (CCRF-CEM [10]) of the same compound?
The Activity was “Active”.

What about the IC50 (K562) of the same compound?
Its IC50 is 38.8 µM.

What about the solubility [11] of the same compound?
Its solubility is 83 µM (≈ 44.3 µg/mL).

What about the remaining at 0.25 h, 2 µM [12] of the same compound?
Its remaining at 0.25 h, 2 µM is 93.4%.

And the IC50 (HCT-116 [13])?
The IC50 was 28.4 µM.

And the Activity (CCRF-CEM [14])?
Its Activity is 2.4%.

And the Activity (CCRF-CEM [15])?
The Activity was “Active”.

What about the remaining at 0.5 h, 2 µM [16] of the same compound?
Its remaining at 0.5 h, 2 µM is 99.2%.

And the remaining at 1 h, 2 µM [17]?
The remaining at 1 h, 2 µM was 94.9%.

What about the Activity (CCRF-CEM [18]) of the same compound?
Its Activity is “Active”.

And the “log(permeability)” value [19]?
The value was -4.93.

And the IC50 (HCT-116 [20])?
The IC50 was 29.8 µM.

And the Activity (CCRF-CEM [21])?
The Activity was 16.5%.

What about the IC50 [22] of the same compound?
Its IC50 is 21.8 µM.

What about the remaining at 0.5 h, 2 µM [23] of the same compound?
Its remaining at 0.5 h, 2 µM is 80.7%.

And the Activity (CCRF-CEM [24])?
The Activity was 36.3%.

And the IC50 [25]?
Its IC50 is 25.1 µM.

What about the solubility [26] of the same compound?
Its solubility is 24 µM (≈ 12.8 µg/mL).

And the IC50 (BJ)?
The IC50 was 49.5 µM.

And the IC50 (A549)?
Its IC50 is 27.6 µM.

And the remaining at 2 h, 2 µM [27]?
Its remaining at 2 h, 2 µM is 85.5%.

What about the Activity (CCRF-CEM [28]) of the same compound?
The Activity was 0.4%.

What about the remaining at 1 h, 2 µM [29] of the same compound?
Its remaining at 1 h, 2 µM is 99.1%.

What about the IC50 (MRC5) of the same compound?
The IC50 was 29.3 µM.

And the Activity (CCRF-CEM [30])?
The Activity was “Active”.

And the remaining at 0.5 h, 2 µM [31]?
The remaining at 0.5 h, 2 µM was 98.2%.

And the Activity (CCRF-CEM [32])?
The Activity was “Active”.

What about the Activity (CCRF-CEM [33]) of the same compound?
The Activity was “Active”.

What about the remaining at 2 h, 2 µM [34] of the same compound?
Its remaining at 2 h, 2 µM is 88.5%.

What about the Activity (CCRF-CEM [35]) of the same compound?
The Activity was 80.7%.

What about the Activity (CCRF-CEM [36]) of the same compound?
Its Activity is “Active”.
